Measurements as given in patent publication US20090221697A1, “MACROLIDE CONJUGATES OF PYRROLIZINE AND INDOLIZINE COMPOUNDS AS INHIBITORS OF 5-LIPOOXYGENASE AND CYCLOOXYGENASE” (MERCKLE GMBH, priority 2005, published 2009).

Key:
blood cells = assay: Uptake of conjugates into blood cells (buffy coat preparations), LC/MS; format: in vitro ADME; set-up: key: −: excluded from blood cells; +: equal or similar; ++: >5-fold enhancement in blood cells; +++: >10-fold enhancement in blood cells; conditions: substrates 1 to 10 μM, 37° C., 5% CO2, screening samples at 0 and 120 minutes
Experimental: Freshly drawn heparinised blood or buffy coat preparations are used for the determination of conjugate uptake. Buffy coat preparations are preferred. They may be obtained from donor blood by simple centrifugation of whole blood (4795 g for 10 minutes). Following centrifugation, plasma is collected from the surface, after which immune cells are expressed from the donor bags along with the erythrocytes lying immediately below the leukocyte layer. This ensures high yields and a sufficient population of erythrocytes for partition. 5 ml of the resulting cell suspension are dispensed into T25 culture flasks. Substrates are added to a final concentration between 1 and 10 μM and the suspensions incubated at 37° C., in a 5% CO2 atmosphere. For analysis of uptake kinetics, samples are drawn at 0, 2, 5, 10, 30, 60, 90, 180, or 240 min after substrate addition. For screening purposes, samples are taken at 0 and 120 minutes.
Cell fractions were prepared using density gradient centrifugation. Mononuclear cells and polymorphonuclear cells are separated from erythrocytes essentially by layering the cell suspension on a viscous medium typically composed of a solution containing Ficoll or similar (commercial suppliers include: Lymphoprep, Axis Shield, 1031966; Lymphoflot HLA, 824010; or PMN Separation Medium Robbins Scientific 1068-00-0). The layered suspension is then centrifuged at 600 g, 20 min, after which the cell fractions and the plasma (incubation medium) fraction are removed by gentle aspiration, washed twice in PBS buffer, followed by estimation of the cell number and pellet volume.
Uptake of compounds is monitored using chromatographic analysis (LC/MS) with mass selective detection. Uptake is also normalized to the amount of cells based on both estimated volume and total protein. […] The supernatant is recovered and sub-sampled for protein and DNA content. Protein in the supernatant is precipitated by bringing the solution to 100% v/v ethanol and centrifuging again at 16100 g, 10 min. Compound uptake is normalized according to cytoplasmic volume of cells in order to obtain the average concentration in the cells. Cell volume is estimated by correlation of DNA, protein or haem content of lysed cell aliquots to cell number and packed volume prior to lysis.

[1] = tested on: collagen-induced arthritis in DBA J1 mice; assay: Collagen-induced arthritis, arthritic score (Table 2); format: in vivo; set-up: key: −: healthy paw; +: one joint inflamed; ++: two types of joint inflamed (e.g. tarsal and digit); +++: inflammation of three joints in two separate parts of the paw; ++++: inflammation of whole paw; conditions: treated for 10 days after arthritis developed
Experimental: (§1) Efficacy of drugs in suppressing arthritis may be determined using animal models. The collagen-induced arthritis in rodents is a well established experimental model of rheumatoid arthritis and considered appropriate to test the efficacy of anti-inflammatory drugs. The model is performed by immunising animals with exogenous collagen (e.g. bovine or chick) and administering substances following the appearance of disease. Disease may be boosted to increase response. The data reported herein were generated using the murine model in DBA J1 mice. At day zero a collagen suspension in complete Freund's adjuvant was injected s.c. at the tail base. At day 20, collagen in incomplete Freund's adjuvant was injected at a nearby position on the tail base. When arthritis developed, animals were randomly assigned to treatment groups. Signs monitored included weight, paw score, paw thickness and overall condition. Animals were observed and treated for 10 days. Macrolide conjugates were formulated as solutions in 1.5% citrate, 6% fructose in water.

[2] = tested on: collagen-induced arthritis in DBA J1 mice; assay: Collagen-induced arthritis (bovine collagen), further experiment, p.o. once daily (Table 3); format: in vivo; conditions: vehicle = 100%
Experimental: as §1
In a further experiment Arthritis was induced using bovine collagen as described above. Animals were treated with compounds p.o. once daily following positive development of disease. Comparison with control animals (untreated) was made at 9 days after treatment.

[3] = dose 66 μmol/kg p.o. once daily
[4] = dose 132 μmol/kg p.o. once daily

Row | Compound | Ratio internal over external concentration (blood cells) | arthitic score [1] | relative score at day 9 after onset of arthritis [2, 3] | relative score at day 9 after onset of arthritis [2, 4]
1 | CC[C@H]1OC(=O)[C@H](C)C(=O)[C@H](C)[C@@H](O[C@@H]2O[C@H](C)C[C@H](N(C)C)[C@H]2OC(=O)Cc2c(-c3cc4ccccc4o3)c(-c3ccccc3)c3n2CC(C)(C)C3)[C@](C)(O)C[C@@H](C)CN(C)[C@H](C)[C@@H](O)[C@]1(C)O [Compound 5] | +++ (>10-fold enhancement in blood cells) | − |  | 
2 | CC[C@H]1OC(=O)[C@H](C)C(=O)[C@H](C)[C@@H](O[C@@H]2O[C@H](C)C[C@H](N(C)C)[C@H]2OC(=O)Cc2c(-c3ccc(Cl)cc3)c(-c3ccccc3)c3n2CC(C)(C)C3)[C@](C)(O)C[C@@H](C)CN(C)[C@H](C)[C@@H](O)[C@]1(C)O [Compound 4] |  |  | 76% | 33%
3 | CC1(C)Cc2c(-c3ccccc3)c(-c3ccc(Cl)s3)c(CC(=O)O)n2C1 [Drug component of 8 (without macrolide), [2-(5-chloro-thiophen-2-yl)-6,6-dimethyl-1-phenyl-6,7-dihydro-5H-pyrrolizin-3-yl]-acetic acid, reference compound] | + | ++ |  | 
4 | CC1(C)Cc2c(-c3ccccc3)c(-c3ccc(Cl)cc3)c(CC(=O)O)n2C1 [Active moiety alone, licofelone, reference compound] |  |  |  | 90%
5 | CC[C@H]1OC(=O)[C@H](C)C2O[C@](C)(C[C@@H](C)CN(C)[C@H](C)[C@@H](O)[C@]1(C)O)[C@H](O[C@@H]1O[C@H](C)C[C@H](N(C)C)[C@H]1OC(=O)Cc1c(-c3ccc(Cl)cc3)c(-c3ccccc3)c3n1CC(C)(C)C3)[C@H]2C [Compound 9] |  |  | 67% | 14%
6 | CC1(C)Cc2c(-c3ccccc3)c(-c3cc4ccccc4o3)c(CC(=O)O)n2C1 [Drug component of 5 (without macrolide), (2-benzofuran-2-yl-6,6-dimethyl-1-phenyl-6,7-dihydro-5H-pyrrolizin-3-yl)-acetic acid, reference compound] | + | ++++ |  | 
7 | CC[C@H]1OC(=O)[C@H](C)C(=O)[C@H](C)[C@@H](O[C@@H]2O[C@H](C)C[C@H](N(C)C)[C@H]2OC(=O)Cc2c(-c3ccc(Cl)s3)c(-c3ccccc3)c3n2CC(C)(C)C3)[C@](C)(O)C[C@@H](C)CN(C)[C@H](C)[C@@H](O)[C@]1(C)O [Compound 8] | ++ (>5-fold enhancement in blood cells) | + |  | 
8 | CC[C@H]1OC(=O)[C@H](C)[C@@H](O)[C@H](C)[C@@H](O[C@@H]2O[C@H](C)C[C@H](N(C)C)[C@H]2OC(=O)Cc2c(-c3ccc(Cl)cc3)c(-c3ccccc3)c3n2CC(C)(C)C3)[C@](C)(O)C[C@@H](C)CN(C)[C@H](C)[C@@H](O)[C@]1(C)O [Compound 2] |  |  | 44% | 
